{"source": "patent US12629394B2", "about": "“Atlas of Choroid Plexus cell types and therapeutic and diagnostic uses thereof” (The Broad Institute, Inc., priority 2019, dated 2026)", "key": {"[1]": {"test_system": "human iPSC cortical neurons", "assay": "MTX exposure of cultured human cortical neurons (iPSCs): oxidative stress and damage", "format": "cell-based", "experimental": "(§1) AAV2/5-SOD3 or control AAV2/5-GFP was injected into embryonic (E) 13.5 mouse lateral ventricles, and offspring were raised to 4-6 weeks of age. Applicants quantified choroid plexus-SOD3 expression (qRT-PCR), CSF-SOD protein levels (immunoblotting), and CSF-anti-oxidant capacity (ELISA). In parallel, Applicants tested if Methotrexate (MTX) exposure induced signatures of oxidative damage in cultured human cortical neurons (iPSCs), in patient CSF, and in vivo rodent brain. To test if supplemental choroid plexus-SOD3 protects the brain from acute oxidative stress, intravenous MTX was administered to mice previously transduced with AAV2/5-SOD3 or control AAV2/5-GFP, and analyzed cortex, hippocampus, and corpus callosum for markers of oxidative damage 48 hours later.\n(§2) Optimized assays for evaluating redox homeostasis and oxidative damage to cells, lipids, and DNA and found chemotherapy (MTX)-induced oxidative damage in human neurons in vitro and in rodent brain in vivo, and rodent ChP in vitro and in vivo was performed (FIG. 4; data not shown)."}, "[2]": {"test_system": "CSF-SOD, CSF antioxidant capacity", "assay": "Patient CSF after MTX: SOD expression and antioxidant capacity", "format": "in vivo, human", "experimental": "as §1, §2"}, "[3]": {"test_system": "choroid plexus, CSF, brain", "assay": "Intravenous MTX in mice: ChP and CSF antioxidants, oxidative damage", "format": "in vivo, mouse", "experimental": "as §1"}, "choroid plexus, CSF": {"test_system": "choroid plexus, CSF", "assay": "Intravenous MTX in rats: ChP and CSF antioxidants", "format": "in vivo, rat"}, "choroid plexus in vitro": {"test_system": "choroid plexus in vitro", "assay": "In vitro incubation of choroid plexus with MTX: ROS, mitochondria, SOD", "format": "cell-based, rodent", "experimental": "as §2"}, "[4]": {"test_system": "CSF-SOD, CSF antioxidant capacity", "settings": "despite thiol supplementation (e.g. Leucovorin); cited from earlier work"}, "[5]": {"settings": "mouse, MTX 4 mg/kg i.v., evaluation at 48 hours"}}, "note": "“Also recorded” adds a separate entry of the source."}
{"smiles": "CN(Cc1cnc2nc(N)nc(N)c2n1)c1ccc(C(=O)N[C@@H](CCC(=O)O)C(=O)O)cc1", "note": "[MTX, Methotrexate]", "values": [{"measurement": "oxidative stress in human iPSC cortical neurons", "setting": "[1]; MTX 10 uM", "value": "triggers oxidative stress"}, {"measurement": "oxidative stress / markers of oxidative damage in cultured human neurons", "setting": "[1]; human iPSC-derived neurons", "value": "induces oxidative stress; also recorded: induced markers of oxidative damage"}, {"measurement": "CSF-SOD expression levels after vs. before treatment", "setting": "[2]; Primary CNS lymphoma patient, high dose MTX, sample 1B vs. pre-treatment 1A", "value": "reduced CSF-SOD expression levels"}, {"measurement": "antioxidant capacity of human CSF", "setting": "[2]; human CSF", "value": "diminishes antioxidant capacity"}, {"measurement": "markers of oxidative damage in patient CSF", "setting": "[2]; patient CSF", "value": "induced markers of oxidative damage"}, {"measurement": "markers of oxidative damage in rodent brain", "setting": "[3]; in vivo rodent brain", "value": "induced markers of oxidative damage"}, {"measurement": "antioxidant availability in CSF", "setting": "[3]; mice, intravenous MTX", "value": "reduced antioxidant availability in CSF"}, {"measurement": "choroid plexus anti-oxidant gene transcription", "setting": "[3]; mice, intravenous MTX", "value": "decreased choroid plexus anti-oxidant gene transcription"}, {"measurement": "SOD expression in vivo (CSF Sod3, SOD activity)", "setting": "[3]; [5]", "value": "decreases SOD expression"}, {"measurement": "oxidative damage in vivo (8-OHdG)", "setting": "[3]; [5]", "value": "increases oxidative damage"}, {"measurement": "antioxidant availability in CSF", "setting": "choroid plexus, CSF", "value": "reduced antioxidant availability in CSF"}, {"measurement": "choroid plexus anti-oxidant gene transcription", "setting": "choroid plexus, CSF", "value": "decreased choroid plexus anti-oxidant gene transcription"}, {"measurement": "SOD expression and secretion", "setting": "choroid plexus in vitro; in vitro", "value": "decreases SOD expression and secretion"}, {"measurement": "mitochondrial respiration in choroid plexus", "setting": "choroid plexus in vitro; in vitro", "value": "impairs mitochondrial respiration"}, {"measurement": "ROS production in ChP", "setting": "choroid plexus in vitro; in vitro incubation", "value": "inducing ROS production"}, {"measurement": "mitochondrial membrane potential in ChP", "setting": "choroid plexus in vitro; in vitro incubation", "value": "alters mitochondrial membrane potential"}, {"measurement": "anti-oxidant capacity of CSF from patients receiving chemotherapeutics", "setting": "[4]", "value": "reduced anti-oxidant capacity"}]}
